Data on three compounds can be found in ChEMBL document CHEMBL3886950, “Furanone compounds as kinase inhibitors” (2016).

The IC50 is the point on the concentration scale where inhibition reaches its midpoint.

The target in the test is Serine/threonine-protein kinase B-raf (Homo sapiens, UniProt P15056, V600E). In words: LanthaScreen Kinase Assay: The BRAFV600E enzymatic assay was performed using a LanthaScreen kinase assay kit purchased from Life Technologies (Grand Island, N.Y.). The assay was conducted according to the procedure provided in the assay kit. […] The final reaction volume for each reaction was 10 ul. The reaction was stopped by addition of 10 ul of TR-FRET dilution buffer kinase supplemented with kinase quench buffer (10 mM final) and Tb-anti-pMAP2K1 (2 nM final). The plate was further incubated at room temperature for another 60 minutes, and the fluorescent signals were read on Victor 5 (Perkin Elmer) with excitation at 340 nm and emission at 495 and 520 nM. The assay signal was determined as a ratio of FRET-specific signal measured with emission filter at 520 nM to that of the signal measured with Tb-specific emission filter at 495 nM. IC50 value was calculated using appropriate programs in GraphPad Prism by plotting the logarithm of the concentration versus percent inhibition.
Chain of Serine/threonine-protein kinase B-raf (P15056 2-766 V600E limits assumed): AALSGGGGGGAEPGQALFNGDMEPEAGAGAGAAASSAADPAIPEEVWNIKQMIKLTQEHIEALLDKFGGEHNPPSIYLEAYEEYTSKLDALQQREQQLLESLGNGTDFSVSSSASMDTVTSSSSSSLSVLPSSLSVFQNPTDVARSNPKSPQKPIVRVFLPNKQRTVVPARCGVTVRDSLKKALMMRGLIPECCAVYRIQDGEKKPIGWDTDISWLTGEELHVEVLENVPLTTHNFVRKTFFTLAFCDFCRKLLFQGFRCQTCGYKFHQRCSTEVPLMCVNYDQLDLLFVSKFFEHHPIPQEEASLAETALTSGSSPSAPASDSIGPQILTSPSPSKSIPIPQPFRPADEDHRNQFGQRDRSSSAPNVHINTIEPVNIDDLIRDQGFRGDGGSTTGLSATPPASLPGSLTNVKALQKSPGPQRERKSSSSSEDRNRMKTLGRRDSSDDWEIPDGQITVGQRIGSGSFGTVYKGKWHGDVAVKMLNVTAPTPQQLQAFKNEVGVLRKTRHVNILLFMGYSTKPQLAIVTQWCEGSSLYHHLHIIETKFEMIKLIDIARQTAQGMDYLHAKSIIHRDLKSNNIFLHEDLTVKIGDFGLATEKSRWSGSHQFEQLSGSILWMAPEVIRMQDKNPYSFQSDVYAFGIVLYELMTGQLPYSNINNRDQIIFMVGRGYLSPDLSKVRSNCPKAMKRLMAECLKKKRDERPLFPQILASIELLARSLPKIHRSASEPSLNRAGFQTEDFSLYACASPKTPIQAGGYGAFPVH
Turning to `Nc1nccc(C2=C(c3cccc(NS(=O)(=O)c4c(F)cccc4F)c3F)C(=O)C3(CCCC3)O2)n1`, the IC50 was 29 nM. Next, `CC1(C)OC(c2ccnc(N)n2)=C(c2cc(Cl)cc(NS(=O)(=O)c3ccc(F)cc3F)c2F)C1=O`: 10 nM; `CC1(C)OC(c2ccnc(N)n2)=C(c2cc(Cl)cc(NS(=O)(=O)c3c(F)cccc3F)c2F)C1=O`: 5.5 nM.
